Broadly, the kinetic solubility is the concentration staying in solution when a stock, usually in DMSO, is diluted into the medium.

Data set [1] relates to BV2 (mouse microglia) cell line. Briefly: pHrodo-myelin phagocytosis/cell viability high content imaging assay: phagocytosis signal. It is filed as cell-based. In a few lines:
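Mouse BV2 and human HMC3 microglia given pHrodo-myelin; phagocytosis and cell viability imaged together by high content imaging about 22 hours after myelin addition. Three measurements extracted, including intensity increase and decrease marking early and later apoptosis.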

Data set [2] can be described thus: Kinetic solubility in aqueous buffer pH 7.4 by total chemiluminescent nitrogen determination (Analiza). The settings on record: aqueous buffer, pH 7.4, aqueous buffer, kinetic from dmso stock.
Data set [3] has as its system BV2 (mouse microglia) cell line. In words: pHrodo-myelin phagocytosis/cell viability high content imaging assay: viability (cell count, nuclear area, nuclear intensity). In a few lines:
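Duplicate single-point screen at 10 μM over 48 h, combined with pHrodo-myelin phagocytosis during the last 20 h. Cytotoxicity is taken from imaged cell counts and nuclear intensity changes, normalized to untreated wells as % control.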

≈ marks a conversion by molar mass, not a printed value.

Regarding `Cc1ccccc1NC(=O)CN1C(=O)N/C(=C/c2ccccc2OCc2ccc(C(=O)O)cc2)C1=O` [CHEMBL1416302], in data set [1] (BV2 cells, 10 μM), the “Stimulation of mouse microglial phagocytosis at 10 μM (>150% control)” value (“Stimulation … (>150% control)” below) is “Y (The compound was found to stimulate phagocytosis (response threshold: >150% control) when murine immortalized microglial cells were dosed at 10 μM (Y: yes))”. The compound further displayed a kinetic solubility in data set [2] of 26.6 µM (≈ 12.9 µg/mL).

As for `COc1cc(N2CCC(N3CCN(C)CC3)CC2)ccc1Nc1ncc(Cl)c(Nc2ccccc2P(C)(C)=O)n1` [Brigatinib], the “Stimulation … (>150% control)” value in data set [1] (BV2, 10 μM) is “Y (The compound was found to stimulate phagocytosis (response threshold: >150% control) when murine immortalized microglial cells were dosed at 10 μM (Y: yes))”. For the same compound, the kinetic solubility in data set [2] turned out to be 123 µM (≈ 72.1 µg/mL). Further, in data set [3] (BV2, 10 μM), the “Mouse microglial cytotoxicity at 10 μM (<70% control)” value is recorded as “Y (The compound was found to be cytotoxic (cell count threshold: <70% control) when murine immortalized microglial cells were dosed at 10 μM (Y: yes))”.

`CC1(C)CCC(CN2CCN(c3ccc(C(=O)NS(=O)(=O)c4ccc(NCC5CCOCC5)c([N+](=O)[O-])c4)c(Oc4cnc5[nH]ccc5c4)c3)CC2)=C(c2ccc(Cl)cc2)C1` [Venetoclax (ABT-199)]: the “Stimulation … (>150% control)” value in data set [1] (BV2, 10 μM) is recorded as “Y (The compound was found to stimulate phagocytosis (response threshold: >150% control) when murine immortalized microglial cells were dosed at 10 μM (Y: yes))”. Also, the kinetic solubility in data set [2] worked out at 6.3 µM (≈ 5.47 µg/mL).

`C=CC[C@@H]1/C=C(\C)C[C@H](C)C[C@H](OC)[C@H]2O[C@@](O)(C(=O)C(=O)N3CCCC[C@H]3C(=O)O[C@H](/C(C)=C/[C@@H]3CC[C@@H](O)[C@H](OC)C3)[C@H](C)[C@@H](O)CC1=O)[C@H](C)C[C@@H]2OC` [Tacrolimus]: the “Stimulation … (>150% control)” value in data set [1] (10 μM, BV2) is “Y (The compound was found to stimulate phagocytosis (response threshold: >150% control) when murine immortalized microglial cells were dosed at 10 μM (Y: yes))”. The compound further had a kinetic solubility in data set [2] of 95.5 µM (≈ 76.8 µg/mL). In addition, in data set [3] (10 μM, BV2), the “Mouse microglial cytotoxicity at 10 μM (<70% control)” value is reported as “Y (The compound was found to be cytotoxic (cell count threshold: <70% control) when murine immortalized microglial cells were dosed at 10 μM (Y: yes))”.

With `Cc1ccc(-n2nc(C(C)(C)C)cc2NC(=O)Nc2ccc(OCCN3CCOCC3)c3ccccc23)cc1` [Doramapimod (BIRB 796)], in data set [1] (10 μM, BV2), the “Stimulation … (>150% control)” value is recorded as “Y (The compound was found to stimulate phagocytosis (response threshold: >150% control) when murine immortalized microglial cells were dosed at 10 μM (Y: yes))”. Besides, the solubility (kinetic) in data set [2] is 3.6 µM (≈ 1.9 µg/mL).

In the case of `Cc1cc(NC(=O)Nc2ccc(F)c(F)c2)n(-c2ccccc2)n1` [ML 297], in data set [1] (10 μM, BV2), the “Stimulation … (>150% control)” value is given as “Y (The compound was found to stimulate phagocytosis (response threshold: >150% control) when murine immortalized microglial cells were dosed at 10 μM (Y: yes))”. This compound showed a kinetic solubility in data set [2] of 49.9 µM (≈ 16.4 µg/mL).

On to `Cc1cccc(-c2nn3c(c2-c2ccnc4ccc(C(N)=O)cc24)CCC3)n1` [Galunisertib], for which the “Stimulation … (>150% control)” value in data set [1] (BV2, 10 μM) is “Y (The compound was found to stimulate phagocytosis (response threshold: >150% control) when murine immortalized microglial cells were dosed at 10 μM (Y: yes))”. In data set [2], the solubility (kinetic) was 249 µM (≈ 92.1 µg/mL).

Take `Cc1ccccc1C(=O)Nc1ccc(C(=O)N2CCCC(O)c3cc(Cl)ccc32)c(C)c1` (stereo not shown) [Tolvaptan]: the “Stimulation … (>150% control)” value in data set [1] (BV2, 10 μM) is listed as “Y (The compound was found to stimulate phagocytosis (response threshold: >150% control) when murine immortalized microglial cells were dosed at 10 μM (Y: yes))”. This compound gave a solubility (kinetic) in data set [2] of 31.8 µM (≈ 14.3 µg/mL).

For `CC/C(=C(\c1ccc(O)cc1)c1ccc(OCCN(C)C)cc1)c1ccccc1` [Afimoxifene], the “Stimulation … (>150% control)” value in data set [1] (BV2, 10 μM) is given as “Y (The compound was found to stimulate phagocytosis (response threshold: >150% control) when murine immortalized microglial cells were dosed at 10 μM (Y: yes))”. Moreover, in data set [2], the solubility (kinetic) came out at 19.5 µM (≈ 7.56 µg/mL).

As to `O=C(O)c1cc2nc(-c3ccc(Cl)cc3)cc(C(F)(F)F)n2n1` [ZINC00184372], in data set [1] (10 μM, BV2), the “Stimulation … (>150% control)” value is listed as “Y (The compound was found to stimulate phagocytosis (response threshold: >150% control) when murine immortalized microglial cells were dosed at 10 μM (Y: yes))”. The compound also returned a kinetic solubility in data set [2] of 270 µM (≈ 92.2 µg/mL).

Source of the values: paper PMC9019904, “AD Informer Set: Chemical tools to facilitate Alzheimer's disease drug discovery” (Alzheimer's & Dementia : Translational Research & Clinical …, 2022).
